# Laboratory results as given in US20140135310A1, “SULPHONAMIDE DERIVATIVES OF ALICYCLIC AMINES FOR THE TREATMENT OF CENTRAL NERVOUS SYSTEM DISEASES” (Adamed Sp. z o.o., priority 2011, published 2014).
# Where two headings read alike, the source gives them in different places.
# Key:
# Type in all cases: cell-based
# [1] = molecular target: 5-HT6 serotoninergic receptors (Homo sapiens, UniProt P50406); experiment: Cellular functional assay, 5-HT6 serotoninergic receptors; conditions: for 5-HT6 ag [%]: agonist mode, percent of control specific agonist response; for Kb: apparent dissociation constant, modified Cheng Prusoff equation, read-out: 5-HT6 antag Kb
# 5-HT6 serotoninergic receptors, sequence (P50406 whole entry): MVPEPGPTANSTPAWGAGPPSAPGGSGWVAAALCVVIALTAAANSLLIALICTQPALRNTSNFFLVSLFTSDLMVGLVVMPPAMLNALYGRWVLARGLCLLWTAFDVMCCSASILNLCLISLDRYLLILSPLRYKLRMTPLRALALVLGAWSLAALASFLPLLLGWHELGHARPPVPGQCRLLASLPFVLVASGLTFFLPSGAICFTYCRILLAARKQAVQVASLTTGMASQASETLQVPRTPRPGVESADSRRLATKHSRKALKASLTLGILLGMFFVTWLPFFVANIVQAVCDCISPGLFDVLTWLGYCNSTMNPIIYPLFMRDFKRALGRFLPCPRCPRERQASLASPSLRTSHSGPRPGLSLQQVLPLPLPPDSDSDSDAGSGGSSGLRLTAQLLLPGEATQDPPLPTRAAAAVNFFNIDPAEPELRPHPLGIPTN
# Experimental: (§1) The results are expressed as a percent of control specific agonist response ((measured specific response/control specific agonist response)×100) obtained in the presence of the test compounds.
# (§2) The EC50 values (concentration producing a half-maximal specific response) and IC50 values (concentration causing a half-maximal inhibition of the control specific agonist response) were determined by non-linear regression analysis of the concentration-response curves generated with mean replicate values using Hill equation curve fitting (Y=D+[(A−D)/(1+(C/C50)nH)], where Y=specific response, D=minimum specific response, A=maximum specific response, C=compound concentration, and C50=EC50 or IC50, and nH=slope factor). This analysis was performed using a software developed at Cerep (Hill software) and validated by comparison with data generated by the commercial software SigmaPlot® 4.0 for Windows® (© 1997 by SPSS Inc.).
# (§3) For the antagonists, the apparent dissociation constants (Kb) were calculated using the modified Cheng Prusoff equation (Kb=IC50/(1+(A/EC50A)), where A=concentration of reference agonist in the assay, and EC50A=EC50 value of the reference agonist).
# [2] = molecular target: 5-HT2A serotoninergic receptors (Homo sapiens, UniProt P28223); experiment: Cellular functional assay, 5-HT2A serotoninergic receptors; conditions: for Kb: apparent dissociation constant, modified Cheng Prusoff equation, read-out: 5-HT2A antag Kb
# 5-HT2A serotoninergic receptors, sequence (P28223 whole entry): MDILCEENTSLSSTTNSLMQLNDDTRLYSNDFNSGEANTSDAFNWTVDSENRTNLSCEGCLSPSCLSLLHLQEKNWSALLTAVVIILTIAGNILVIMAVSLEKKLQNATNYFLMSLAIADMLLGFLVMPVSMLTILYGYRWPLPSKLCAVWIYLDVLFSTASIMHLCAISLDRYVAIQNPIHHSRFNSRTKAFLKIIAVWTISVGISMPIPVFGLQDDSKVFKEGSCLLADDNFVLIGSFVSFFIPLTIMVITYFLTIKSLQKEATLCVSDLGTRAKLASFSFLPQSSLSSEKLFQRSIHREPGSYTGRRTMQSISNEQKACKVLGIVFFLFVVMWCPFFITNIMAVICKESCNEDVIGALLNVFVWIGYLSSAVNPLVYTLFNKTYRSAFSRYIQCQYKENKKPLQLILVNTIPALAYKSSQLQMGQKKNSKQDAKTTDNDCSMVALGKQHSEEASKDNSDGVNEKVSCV
# Experimental: as §1
# as §2, with “factor).” for “factor). This analysis was performed using a software developed at Cerep (Hill software) and validated by comparison with data generated by the commercial software SigmaPlot® 4.0 for Windows® (© 1997 by SPSS Inc.).”
# as §3
# [3] = molecular target: D2 dopaminergic receptors (Homo sapiens, UniProt P14416); experiment: Cellular functional assay, D2 dopaminergic receptors; conditions: for D2 ag [%]: agonism, percent of control specific agonist response (3 μM dopamine for control); for D2 ag [%] / D2 antag [%]: D2S (h), HEK-293 cells; for D2 antag [%]: antagonism, stimulus dopamine (30 nM); for Kb: apparent dissociation constant, modified Cheng Prusoff equation, read-out: D2 antag Kb
# D2 dopaminergic receptors, sequence (P14416 whole entry): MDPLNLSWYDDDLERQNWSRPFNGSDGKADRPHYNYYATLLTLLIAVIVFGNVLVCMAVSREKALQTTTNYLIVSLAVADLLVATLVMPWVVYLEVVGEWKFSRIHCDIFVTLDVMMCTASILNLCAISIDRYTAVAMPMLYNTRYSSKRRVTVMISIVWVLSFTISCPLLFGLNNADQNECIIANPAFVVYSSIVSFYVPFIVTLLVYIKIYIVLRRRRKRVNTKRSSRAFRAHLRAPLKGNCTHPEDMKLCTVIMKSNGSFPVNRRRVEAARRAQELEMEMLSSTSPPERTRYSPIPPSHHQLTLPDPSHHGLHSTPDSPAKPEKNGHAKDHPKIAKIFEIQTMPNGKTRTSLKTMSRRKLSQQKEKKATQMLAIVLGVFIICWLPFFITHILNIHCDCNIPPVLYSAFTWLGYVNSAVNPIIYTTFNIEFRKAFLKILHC
# Experimental: as §1, §2, §3
# [4] = molecular target: 5-HT7 serotoninergic receptors (Homo sapiens, UniProt P34969); experiment: Cellular functional assay, 5-HT7 serotoninergic receptors; conditions: for 5-HT7 ag [%]: agonist mode, percent of control specific agonist response; for Kb: apparent dissociation constant, modified Cheng Prusoff equation, read-out: 5-HT7 antag Kb
# 5-HT7 serotoninergic receptors, sequence (P34969 whole entry): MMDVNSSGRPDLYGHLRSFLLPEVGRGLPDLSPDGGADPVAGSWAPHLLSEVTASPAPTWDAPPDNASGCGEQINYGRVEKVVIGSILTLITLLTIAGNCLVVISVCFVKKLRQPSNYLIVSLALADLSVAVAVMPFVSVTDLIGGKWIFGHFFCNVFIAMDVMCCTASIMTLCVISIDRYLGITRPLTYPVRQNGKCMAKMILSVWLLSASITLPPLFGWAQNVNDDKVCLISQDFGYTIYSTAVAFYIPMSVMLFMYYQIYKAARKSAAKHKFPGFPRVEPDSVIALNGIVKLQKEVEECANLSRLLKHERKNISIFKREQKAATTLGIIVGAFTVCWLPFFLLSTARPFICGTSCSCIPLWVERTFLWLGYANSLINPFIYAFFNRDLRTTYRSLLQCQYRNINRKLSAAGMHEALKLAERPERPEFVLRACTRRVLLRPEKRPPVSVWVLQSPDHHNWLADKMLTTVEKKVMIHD
# Experimental: as §1, §2, §3
# [5] = molecular target: D3 dopaminergic receptors (Homo sapiens, UniProt P35462); experiment: Cellular functional assay, D3 dopaminergic receptors; conditions: for D3 ag [%]: agonism, percent of control specific agonist response (0.3 μM dopamine for control); for D3 ag [%] / D3 antag [%]: D3 (h), CHO cells; for D3 antag [%]: antagonism, stimulus dopamine (10 nM); for Kb: apparent dissociation constant, modified Cheng Prusoff equation, read-out: D3 antag Kb
# D3 dopaminergic receptors, sequence (P35462 whole entry): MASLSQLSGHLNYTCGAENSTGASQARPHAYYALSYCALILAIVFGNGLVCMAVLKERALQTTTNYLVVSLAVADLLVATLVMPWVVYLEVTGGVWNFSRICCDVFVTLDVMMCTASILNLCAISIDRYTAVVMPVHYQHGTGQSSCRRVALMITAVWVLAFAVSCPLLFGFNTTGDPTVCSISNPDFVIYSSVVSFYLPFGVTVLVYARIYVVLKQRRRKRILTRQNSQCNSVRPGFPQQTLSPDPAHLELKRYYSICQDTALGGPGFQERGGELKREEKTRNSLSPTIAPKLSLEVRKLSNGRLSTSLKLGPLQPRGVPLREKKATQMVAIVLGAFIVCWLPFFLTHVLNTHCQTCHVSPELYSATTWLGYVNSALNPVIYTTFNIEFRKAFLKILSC
# Experimental: as §1, §2, §3
# [6] = agonist mode, percent of control specific agonist response
Molecule,5-HT6 ag [%] [1] [%],Kb [1] [nM],5-HT2A ag [%] [2] [%],Kb [2] [nM],D2 ag [%] [3] [%],D2 antag [%] [3] [%],Kb [3] [nM],5-HT7 ag [%] [4] [%],Kb [4] [nM],D3 ag [%] [5] [%],D3 antag [%] [5] [%],Kb [5] [nM],"5-HT2A ag [%] [2, 6] [%]",5-HT6 antag [%] ([1]; antagonist mode),5-HT7 antag [%] ([4]; antagonist mode)
"O=S(=O)(N[C@@H]1CCN(CCCc2noc3cc(F)ccc23)C1)c1cc2ccccc2s1 [Compound 196, N-[(3R)-1-[3-(6-Fluoro-1,2-benzoxazol-3-yl)propyl]pyrrolidin-3-yl]benzo-thiophene-2-sulphonamide]",−2,38,0,8.3,0,95,10,0,0.57,−16,77,71,,,
"O=S(=O)(NC1CCN(CCCc2noc3cc(F)ccc23)C1)c1ccc2cc(Cl)ccc2c1 (centres unmarked) [Compound 23, 6-Chloro-N-[1-[3-(6-fluoro-1,2-benzoxazol-3-yl)propyl]pyrrolidin-3-yl]naphthalene-2-sulphonamide]",−1,,,,1,87,,−2,,−10,68,,−2,,
"O=S(=O)(NC1CCN(CCCc2noc3cc(F)ccc23)CC1)c1cccc2ccccc12 [Compound 34, N-[1-[3-(6-Fluoro-1,2-benzoxazol-3-yl)propyl]-4-piperidine]-naphthalene-1-sulphonamide]",,,−1,,,,,−1,0.077,,,,,,
"Cc1c(S(=O)(=O)N[C@H]2CCN(CCCc3noc4cc(F)ccc34)C2)sc2ccc(Cl)cc12 [Compound 205, 5-Chloro-N-[(3S)-1-[3-(6-fluoro-1,2-benzoxazol-3-yl)propyl]pyrrolidin-3-yl]-3-methyl-benzothiophene-2-sulphonamide]",1,,,,3,61,,−1,,7,95,,−3,,
"O=S(=O)(N[C@@H]1CCN(CCCc2noc3cc(F)ccc23)C1)c1cc2ccccc2o1 [Compound 214, N-[(3R)-1-[3-(6-Fluoro-1,2-benzoxazol-3-yl)propyl]pyrrolidin-3-yl]benzo-furan-2-sulphonamide]",−4,,,,3,89,,−1,,,117,,−2,,
"O=S(=O)(N[C@@H]1CCN(CCCc2noc3cc(F)ccc23)C1)c1ccc2cc(Cl)ccc2c1 [Compound 200, 6-Chloro-N-[(3R)-1-[3-(6-fluoro-1,2-benzoxazol-3-yl)propyl]pyrrolidin-3-yl]naphthalene-2-sulphonamide]",−2,,,,0,96,,−1,,−1,93,,0,,
"O=S(=O)(N[C@H]1CCN(CCCc2noc3cc(F)ccc23)C1)c1cc2ccccc2s1 [Compound 197, N-[(3S)-1-[3-(6-Fluoro-1,2-benzoxazol-3-yl)propyl]pyrrolidin-3-yl]benzo-thiophene-2-sulphonamide]",−1,,1,,1,82,,0,,,,,,,
"N-[1-[3-(6-Fluoro-1,2-benzoxazol-3-yl)propyl]pyrrolidin-3-yl]-1-methyl-imidazole-4-sulphonamide [Compound 217]",−6,,,,10,79,,5,,,,,−2,85,74
"O=S(=O)(NC1CCN(CCCc2noc3cc(F)ccc23)C1)c1cc2ccccc2s1 (centres unmarked) [Compound 25, N-[1-[3-(6-Fluoro-1,2-benzoxazol-3-yl)propyl]pyrrolidin-3-yl]-benzothiophene-2-sulphonamide]",0,10,−2,4.7,3,89,2.3,−2,1.4,0,82,8,,,
"Cc1c(S(=O)(=O)NC2CCN(CCCc3noc4cc(F)ccc34)C2)sc2ccc(F)cc12 (centres unmarked) [Compound 28, 5-Fluoro-N-[1-[3-(6-fluoro-1,2-benzoxazol-3-yl)propyl]pyrrolidin-3-yl]-3-methyl-benzothiophene-2-sulphonamide]",−1,,,,1,87,,−3,,−8,74,,−2,,
"O=S(=O)(N[C@H]1CCN(CCCc2noc3cc(F)ccc23)C1)c1cc2ccccc2o1 [Compound 215, N-[(3S)-1-[3-(6-Fluoro-1,2-benzoxazol-3-yl)propyl]pyrrolidin-3-yl]benzo-furan-2-sulphonamide]",−2,,,,6,91,,0,,,,,−2,,
"O=S(=O)(N[C@H]1CCN(CCCc2noc3cc(F)ccc23)C1)c1cc2ccc(Cl)cc2s1 [Compound 199, 6-Chloro-N-[(3S)-1-[3-(6-fluoro-1,2-benzoxazol-3-yl)propyl]pyrrolidin-3-yl]benzothiophene-2-sulphonamide]",−3,,,,4,46,,1,,,,,−2,,
"O=S(=O)(NCC1CCN(CCCc2noc3cc(F)ccc23)C1)c1cccc2ccccc12 (centres unmarked) [Compound 239, N-[[1-[3-(6-Fluoro-1,2-benzoxazol-3-yl)propyl]pyrrolidin-3-yl]methyl]naphthalene-1-sulphonamide]",2,,−2,,2,56,,1,,,,,,,
"Cc1ccc2sc(S(=O)(=O)NC3CCN(CCCc4noc5cc(F)ccc45)C3)cc2c1 (centres unmarked) [Compound 226, N-[1-[3-(6-Fluoro-1,2-benzoxazol-3-yl)propyl]pyrrolidin-3-yl]-5-methylbenzothiophene-2-sulphonamide]",−5,,,,0,87,,−2,,−26,107,,−1,,
"O=S(=O)(NC1CCN(CCCc2noc3cc(F)ccc23)C1)c1cc2ccccc2o1 (centres unmarked) [Compound 216, N-[1-[3-(6-Fluoro-1,2-benzoxazol-3-yl)propyl]pyrrolidin-3-yl]benzofuran-2-sulphonamide]",−5,,,,0,86,,−5,,,,,−2,,
"Cc1c(S(=O)(=O)N[C@@H]2CCN(CCCc3noc4cc(F)ccc34)C2)sc2ccc(Cl)cc12 [Compound 204, 5-Chloro-N-[(3R)-1-[3-(6-fluoro-1,2-benzoxazol-3-yl)propyl]pyrrolidin-3-yl]-3-methyl-benzothiophene-2-sulphonamide]",−1,,,,1,86,,,,−8,109,,−1,,
"COc1ccc2cc(S(=O)(=O)N[C@H]3CCN(CCCc4noc5cc(F)ccc45)C3)ccc2c1 [Compound 231, N-[(3S)-1-[3-(6-Fluoro-1,2-benzoxazol-3-yl)propyl]pyrrolidin-3-yl]-6-methoxy-naphthalene-2-sulphonamide]",,,,,13,49,,,,−6,54,,0,,
"O=S(=O)(NCC1CCN(CCCc2noc3cc(F)ccc23)C1)c1ccc2ccccc2c1 (centres unmarked) [Compound 240, N-[[1-[3-(6-Fluoro-1,2-benzoxazol-3-yl)propyl]pyrrolidin-3-yl]methyl]-naphthalene-2-sulphonamide]",4,,−1,,3,64,,0,,,,,,,
